Earlier results in patent US20030109678A1, “Methods and means for regulation of gene expression” (priority 2000, published 2003).

Molecular target: mutated form of the human estrogen receptor (ER), G521R mutation (Homo sapiens, UniProt P03372, G521R)
Sequence (P03372 whole entry G521R): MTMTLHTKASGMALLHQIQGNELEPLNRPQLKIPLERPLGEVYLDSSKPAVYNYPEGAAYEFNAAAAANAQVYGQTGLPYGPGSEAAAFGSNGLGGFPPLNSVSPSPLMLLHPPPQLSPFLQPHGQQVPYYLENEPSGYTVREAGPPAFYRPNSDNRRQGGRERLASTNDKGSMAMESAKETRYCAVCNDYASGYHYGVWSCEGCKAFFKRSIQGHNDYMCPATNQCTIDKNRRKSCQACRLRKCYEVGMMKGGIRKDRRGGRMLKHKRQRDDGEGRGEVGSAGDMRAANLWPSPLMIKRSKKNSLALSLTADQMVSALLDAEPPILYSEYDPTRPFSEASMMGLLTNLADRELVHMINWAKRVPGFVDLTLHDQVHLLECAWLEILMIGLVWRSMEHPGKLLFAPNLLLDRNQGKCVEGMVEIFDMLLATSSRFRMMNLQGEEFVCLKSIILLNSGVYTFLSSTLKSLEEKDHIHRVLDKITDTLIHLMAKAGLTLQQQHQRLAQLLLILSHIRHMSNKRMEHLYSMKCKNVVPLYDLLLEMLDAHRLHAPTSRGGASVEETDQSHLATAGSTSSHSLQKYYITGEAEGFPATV

For 4-hydroxytamoxifen, the “binding by G521R ER” value is given as “efficiently binds”.
